In the METLIN SMRT retention time set (Domingo-Almenara et al. 2019) one finds RP-LC retention time data, which are given here for 80 compounds.

This data set in a line: gradient 5% acetonitrile 3 min, to 50% in 2 min, to 85% in 15 min, held 3 min, 100 µL/min. The conditions noted are these: column: Zorbax Extend-C18 2.1 x 50 mm; eluents: water / acetonitrile, 0.1% formic acid. In a few lines:
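Retention times of pure standards were taken from adduct peaks that were selected by computer and manually inspected. Over 3 months, mixtures of ~100 molecules were run by HPLC–quadrupole time-of-flight mass spectrometry in positive and negative ionization mode. The Zorbax Extend-C18 column (2.1 × 50 mm, 1.8 μm) ran at 100 μL/min in water and acetonitrile, each containing 0.1% formic acid, with 40 μL dead volume and 900 μL dwell volume.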
`COc1ccc(NC(=O)N2CC3CN(C)CC(C2)O3)cc1` had an RP-LC retention time of 560 s. `Cc1ccc2oc(SCc3noc(CCC(=O)Nc4nc(-c5ccccc5)cs4)n3)nc2c1` registered an RP-LC retention time of 1130 s. Then `CCOC(=O)c1sc(NC(=O)c2cn(C)nc2OC)nc1C`, with 767 s. Then `Cc1cc(C)cc(NC(=O)C(=O)NCC(c2ccc3c(c2)CCCN3C)N2CCOCC2)c1` (stereo not given), with 601 s; and `O=C(Cn1c(=O)c2nncn2c2ncccc21)NCc1ccccc1Cl`, with 662 s. With `Cc1sc(NC(=O)c2ccccc2)nc1-c1ccc2c(c1)NC(=O)CO2` the figure was 857 s. As to `Cc1oc2c(c1C(=O)Nc1ccc3c(c1)OCO3)C1=NC(C)(C)CN1C=N2`, the RP-LC retention time is 665 s. With `CCNc1cc(N2CCC(CCC(=O)NCc3cccc(Cl)c3)CC2)ncn1` the figure was 678 s; with `O=C(CC1CCN(C(=O)c2cc3cc(Cl)ccc3[nH]2)CC1)NCCCN1CCCC1`, 644 s. Then `Cc1cc(C)cc(NC(=O)c2cn3c(n2)CCCC3)c1`, with 644 s; and `Cc1cccc(Sc2nccnc2N2CCC(C(=O)N3CCOCC3)CC2)c1`, with 900 s; and `CCOC(=O)c1ccc(N(C)c2csc(-c3ccccc3)n2)cc1`, with 1270 s. Then `CCCc1noc(-c2cccnc2N2CCCN(Cc3cc(F)cc(F)c3)CC2)n1`, with 733 s; and `COc1ccc(O)c(CNC2CCN(c3ccc(C(=O)NC4CC4)cn3)C2)c1` (stereo not given), with 546 s; and `CNC(=O)Nc1ccc(C2(C(=O)Nc3ccc4c(c3)CCC4)CCC2)cc1`, with 844 s. On to `COc1ccc(C2OC(c3cc(Cl)ccc3OC(C)=O)=NN2C(C)=O)cc1` (stereo not given), for which the RP-LC retention time was 956 s.

The compound `COc1ccc(NC(=O)Cn2cnc3nc(N4CCC(C)CC4)ncc3c2=O)cc1Cl` displayed an RP-LC retention time of 834 s.

The compound `Cc1cc(C)c(-c2noc(C)n2)c(NC(=O)c2cccc(Cl)c2)n1` yielded an RP-LC retention time of 827 s.

With `CCc1ccc(CNC(=O)c2cc3n(n2)CC(C)(C(=O)NC2CCCC2)N(CC)C3=O)cc1` (stereo not given), the RP-LC retention time is 865 s.

The compound `c1ccc(-c2csc(NCc3ccco3)n2)cc1` yielded an RP-LC retention time of 912 s. With `CN(C)C1(CC2CC2)CCN(C(=O)C2CCCC2)CC1` the figure was 604 s; with `CCc1ccc(N2C=C(C(=O)N3CCOCC3)S(=O)(=O)c3ccc(Cl)cc32)cc1`, 936 s.

Compound `CS(=O)(=O)Nc1ccc(-c2noc(-c3cncc(Br)c3)n2)cc1` showed an RP-LC retention time of 877 s. `CCOc1ccc(NC(=O)C2CCCN(C)C2)cc1` (stereo not given) displayed an RP-LC retention time of 643 s. With `Cc1ccccc1N1CCN(S(=O)(=O)c2cc3n(c2)CCCNC3=O)CC1` the figure was 788 s; with `CCc1nc(-c2ccc(C(=O)N3CCN(C(=O)c4ccco4)CC3)cc2)cs1`, 767 s; with `O=C(NCc1ccco1)N1CCN(Cc2nc3cccnc3n2-c2cccc(F)c2)CC1`, 636 s. Then `Cc1ccc2[nH]cc(CCNC(=O)c3cccc(NC(=O)c4nnc(C5CC5)s4)c3)c2c1`, with 932 s; and `NCCSSCc1ccccc1CSSCCN`, with 567 s. `CCCn1cc(S(=O)(=O)Nc2ccc(C)cc2)c2cccnc21` had an RP-LC retention time of 937 s. Then `Cc1c(-c2noc(C(=O)NCCN3CCCC3)n2)oc2c(C)cccc12`, with 668 s; and `O=C(NCCN1CCCc2ccccc21)C1CCCN(c2ncnc3c2nc2n3CCCCC2)C1` (stereo not given), with 877 s.

Regarding `CCCNC(=O)NC1CCN(c2nc3ccccc3n(CC)c2=O)CC1`, the RP-LC retention time was determined as 770 s. With `Cc1ccc(CN2CCC(CNC(=O)Cn3c(=O)c(C)nc4cc(C)c(C)cc43)C2)cc1` (stereo not given) the figure was 638 s; with `COc1cccc(C2=NC3(CCN(C(=O)c4ccc5c(c4)OCO5)CC3)NC2=O)c1`, 712 s. With `O=C(CC1CCN(C(=O)c2ccc3oc(-c4ccccc4)nc3c2)CC1)NCC1CCCO1` (stereo not given) the figure was 718 s; with `CC(=O)N1CCC(C(=O)Nc2ccc(OCc3nnc(-c4ccccc4)o3)cc2)CC1`, 712 s.

`CCCNc1cc(N2CCC(CCC(=O)NCCc3ccccn3)CC2)ncn1` showed an RP-LC retention time of 557 s.

Compound `COc1cccc(C(=O)Nc2c(-c3ccccc3)nc3ccccn23)c1OC` displayed an RP-LC retention time of 666 s. With `Cc1cccc(-c2nc(C3CCN(S(=O)(=O)c4ccccc4)CC3)no2)c1` the figure was 1150 s; with `Cn1cc(-c2nc(C(=O)Nc3cc(F)ccc3F)cs2)c2cccnc21`, 1150 s; with `Cc1ccc(-n2nc(N3CCCC(C(=O)Nc4cccc(C)c4C)C3)ccc2=O)cc1Cl` (stereo not given), 999 s. For the compound `COc1ccc(-n2c(=O)c(C(=O)Nc3ccccc3Cl)c(O)c3cccnc32)cc1`, the RP-LC retention time amounted to 1270 s. Then `CCNC(=O)c1ccc2nc(C)c(C)nc2c1`, with 618 s; and `O=C(Nc1ccccc1)Oc1ccc[nH]c1=O`, with 650 s. With `Cc1ccc(S(=O)(=O)N2CCC3(CC2)NCCN=C3NCc2ccc(F)cc2)cc1C` the figure was 757 s. `CCc1ccc(CNC(=O)C2CCN(Cc3cn(CC)c4ccc(Cl)cc34)CC2)cc1` displayed an RP-LC retention time of 825 s. With `Cc1ccccc1NC(=O)N1CCN(c2nc(N3CCOCC3)nc(-n3ccnc3)n2)CC1` the figure was 603 s; with `Cc1ccc(CN2CCN(C3CCN(C(=O)Nc4ccc5c(c4)OCCO5)CC3)C(=O)C2=O)cc1`, 715 s. With `Cc1cccc(-c2nn3c(c2-c2ccnc4ccc(C(N)=O)cc24)CCC3)n1` the figure was 612 s; with `COC(=O)c1cccc(C(=O)Nc2ccc(C)c(C)c2)n1`, 910 s; with `Cc1nccn1CC(=O)N1C[C@@H](C)[C@H](c2nc(-c3ccncc3)no2)C1`, 569 s.

In the case of `Cc1oc2c(c(C)nn2-c2ccccc2)c(=O)c1Cl`, the RP-LC retention time came out at 954 s.

`CCOC(=O)c1cc(C2CC2)nc2c1c(=O)n(Cc1ccc(F)cc1)c(=O)n2C`: the RP-LC retention time was 1200 s. With `Cc1ccc(NC(=O)Cc2cn3cc(F)ccc3n2)c(C)c1` the figure was 610 s; with `O=C(NCC1CCCO1)C1CCN(c2ncnc3c2oc2ccccc23)CC1` (stereo not given), 618 s. With `N#Cc1cnc2nc(-c3ccccc3)nn2c1N` the figure was 663 s. `CCCN1CCN(C(=O)c2ccc(CS(=O)c3ccccc3Cl)o2)CC1` (stereo not given) came in with an RP-LC retention time of 593 s. Then `CCOc1cc(-c2nc(C3CC(=O)N(c4ccc(C)cc4)C3)no2)cc(OCC)c1OCC` (stereo not given), with 1150 s; and `Cc1cc(-c2nnc(-c3ccco3)o2)c(C)n1CC(=O)Nc1cccc(Cl)c1`, with 920 s; and `COc1cc2nc(C(=O)N3CCCCC3)cc(Nc3ccc(C(C)C)cc3)c2cc1OC`, with 832 s. Then `CCc1ccccc1NC(=O)Nc1cccc(-c2ccc(N3CCOCC3)nn2)c1`, with 717 s; and `Cc1sc(-c2noc(C(C)C)n2)cc1S(=O)(=O)N1CCC(C(=O)N(C)Cc2ccco2)CC1`, with 1070 s; and `O=C(NCC1CCOCC1)c1ccc(Br)cc1`, with 708 s. With `O=C(CSc1nc(N2CCCCC2)nc2ccccc12)Nc1ccc(Br)cc1` the figure was 810 s; with `COc1ccc(-c2cc(-c3ccccc3)c(-c3ccccc3)nn2)cc1`, 1100 s. `COc1ccc(NC(=O)N2CCC(n3c(C)nc4cccnc43)CC2)cc1OC` showed an RP-LC retention time of 563 s. Then `Cc1cc(C)cc(C(=O)N2CCCC(C(=O)NC3CCCC3)C2)c1` (stereo not given), with 836 s; and `CC(C)c1cc(C(=O)N2Cc3ccc(CN4CCN(C)CC4)cc3C2)c(O)cc1O`, with 654 s. Then `O=C(Cn1nc2c3sc(N4CCCCC4)nc3ncn2c1=O)Nc1cc(F)cc(F)c1`, with 828 s; and `CNC(=O)c1nc(C(=O)NCc2ccc(C)cc2)cs1`, with 739 s; and `COc1ccc(-c2c(C(=O)Nc3cccc(C(C)=O)c3)nc3ccccn23)cc1`, with 937 s. With `COCCn1nnnc1C1CC2(CCOCC2)C(=O)N1Cc1ccc(C(F)(F)F)cc1` (stereo not given) the figure was 797 s; with `CN1CCN(c2ncc3c(=O)n(CC4CCCO4)ccc3n2)CC1` (stereo not given), 567 s.

With `CC1(C(=O)NCc2ccc(F)cc2)Cn2cnc(C(=O)NC3CCCCCC3)c2C(=O)N1C1CC1` (stereo not given), the RP-LC retention time is 823 s. Consider `Cn1c(=O)c(=O)n(C)c2cc(N3CCCC3)c(NC(=O)Cc3ccc(Cl)cc3)cc21`, for which the RP-LC retention time was 685 s.

`CC(C)Oc1ccc(CNC(=O)CCc2c(-c3ccc(Br)cc3)nc3ccccn23)cc1` displayed an RP-LC retention time of 744 s.

Consider `O=C(C1CCC1)N1CCc2sc(S(=O)(=O)Nc3cccc(Cl)c3)cc2C1`, for which the RP-LC retention time was 941 s. As for `O=C(O)c1ccc(CCCc2ccc(OCCc3ccc(F)cc3)cc2)o1`, the RP-LC retention time was found to be 1090 s. With `CCC(=O)N1CCc2c([nH]c3ccc(Cl)cc23)C12C(=O)N(C)c1ccccc12` (stereo not given) the figure was 901 s.
